{"source": "patent US20220095617A1", "about": "“PLANT GROWTH REGULATING AGENT” (IDEMITSU KOSAN CO.,LTD., priority 2019, published 2022)", "key": {"lettuce (Green Wave) [1]": {"test_system": "lettuce (Green Wave)", "test": "Example 1: High-temperature stress Petri dish test (lettuce), comparison with other natural products", "format": "in vivo", "details": "0.1 ppm in agar medium"}, "[2]": {"test_system": "Carrot (US Harumakigosun carrot) seeds", "test": "Example 7: High-temperature stress Petri dish test (carrot seeds)", "format": "in vivo", "details": "for Germination rate, Increase rate: non-addition group = 100.0; for Germination rate, Average: seeds 55° C. hot water 20 minutes, 23° C. 7 days", "experimental": "Carrot (US Harumakigosun carrot, The Yokohama Nursery Co., Ltd.) seeds were soaked in hot water at 55° C. for 20 minutes to perform high-temperature treatment. […] A group similarly soaked in distilled water was provided as a non-addition group. After the soaking treatment, the seeds were dried in air, and then 20 seeds were sown on each of shallow Petri dishes in which qualitative filter paper was placed. To the filter paper in each Petri dish, 3 mL of distilled water was uniformly added dropwise. […] For each group, three measurement results were obtained (N=3)."}, "Bent grass (Penncross)": {"test_system": "Bent grass (Penncross)", "test": "Example 8: High-temperature stress pot test (bent grass)", "format": "in vivo", "details": "for Weight of above-ground part, Increase rate: non-addition group = 100.0; for Weight of above-ground part, Average: greenhouse average daytime 50° C., 7 days, fresh weight", "experimental": "Bent grass (Penncross, Snow Brand Seed Co., Ltd.) was uniformly sown on pots filled with seedling culture soil (manufactured by Katakura & Co-op Agri Corporation; Kumiai seedling culture soil for gardening Genkikun No. 1) (soil volume, 100 ml), and cultivated for 14 to 20 days, followed by evenly cutting the above-ground part to a length of about 1 cm on the day before application of hesperidin. […] A non-addition group was similarly subjected to drenching treatment using distilled water. High-temperature treatment was carried out by cultivation in a glass greenhouse (average daytime temperature, […]) for 7 days, and then the fresh weight of the above-ground part was evaluated. For each group, three measurement results were obtained (N=3)."}, "[3]": {"test_system": "Zoysia tenuifolia (Korean velvet grass)", "test": "Example 12: Low-temperature stress field test (lawn grass)", "format": "in vivo", "details": "for Number of sprouts, Average: three months after final spraying, low temperature; for Number of sprouts, Increase rate: non-addition group = 100.0", "experimental": "In the research institute, a wettable powder formulation containing 1% hesperidin having the formulation composition shown in Table 11 was applied a total of four times by foliar spraying at a ratio of 0.15 to 0.75 g/m^2 (amount of water sprayed, 250 ml) every other week from late October to late December in 2017. Three months after the final spraying, the lawn grass was collected using a hole cutter, and the number of sprouts was measured. For each group, three measurement results were obtained (N=3).\nIn the period from November 2017 to March 2018, the highest temperature was 16.6° C.; the lowest temperature was −3.7° C.; and the average temperature was 6.0° C. Since the optimum growth temperature of Zoysia tenuifolia (Korean velvet grass) is 24 to 35° C., and it enters a period of dormancy at 10° C. or less, the plant was judged to have been affected by the low-temperature stress."}, "[4]": {"test_system": "Cucumber (Hanjirofushinari)", "test": "Example 13: Salt stress pot test (cucumber)", "format": "in vivo", "details": "foliar spraying 1 ppm (dilution of wettable powder formulation)", "experimental": "Cucumber (Hanjirofushinari, Takii & Co., Ltd.) was sown on pots filled with seedling culture soil (manufactured by Katakura & Co-op Agri Corporation; Kumiai seedling culture soil for gardening Genkikun No. 1) (soil volume, 100 ml), and cultivated for 21 days. With a wettable powder formulation containing 1% hesperidin having the formulation composition shown in Table 11, a dilution was prepared such that the final concentration of hesperidin was 1 ppm. For each pot, 10 ml of the dilution was applied by foliar spraying. The cucumber was left to stand in a dilution whose final NaCl concentration was adjusted to 75 mM, and allowed to absorb water from the bottom. Cultivation was carried out in a greenhouse (20 to 25° C.) for 7 days, and then the fresh weight of the above-ground part was measured. For each group, six measurement results were obtained (N=6)."}, "Wheat (Satonosora)": {"test_system": "Wheat (Satonosora)", "test": "Example 15: Growth-promoting effect (wheat)", "format": "in vivo", "details": "for Increase/decrease of above-ground part / Increase/decrease of underground part: non-addition group = 100%; for Weight of above-ground part FW / Weight of underground part FW: 25° C., 14 days", "experimental": "Wheat (Satonosora) was sown on pots filled with seedling culture soil (manufactured by Katakura & Co-op Agri Corporation; Kumiai seedling culture soil for gardening Genkikun No. 1) (soil volume, 100 ml). After […] of the germination, drenching treatment was carried out with 5 ml each of dilutions of hesperidin prepared at final concentrations of 10 to 33 ppm (using water as the solvent). […]"}, "Cabbage (Okina)": {"test_system": "Cabbage (Okina)", "test": "Example 18: Growth-promoting effect (cabbage, seed dressing)", "format": "in vivo", "details": "for Increase/decrease of above-ground part / Increase/decrease of underground part: non-addition group = 100%; for Weight of above-ground part FW / Weight of underground part FW: 25° C., 28 days", "experimental": "For cabbage (Okina, Takii & Co., Ltd.), seed dressing was carried out by application, at 5% seed weight, of a dilution of hesperidin prepared at a final concentration of 1 to 100 ppm (using water as the solvent). The dressed cabbage seeds were sown on a cell tray filled with seedling culture soil (manufactured by Nihon Hiryo Co., Ltd.; “Naebijin N100”). […]"}, "tomato (Momotaro Home)": {"test_system": "tomato (Momotaro Home)", "test": "Example 24: Dry stress Petri dish test (tomato)", "format": "in vivo", "details": "Dry stress (20 g/L polyethylene glycol); for Root length, Average: 28° C., 12 days; for Root length, Increase rate: non-addition group = 100.0", "description": "For each group, three measurement results were obtained (N=3)."}, "lettuce (Green Wave) [5]": {"test_system": "lettuce (Green Wave)", "test": "Example 2: High-temperature stress Petri dish test (lettuce), blending with neohesperidin", "details": "0.1 ppm", "protocol": "For seeds, 2% water agar medium (using water as the solvent), which was prepared such that hesperidin (Fujifilm Wako Pure Chemical Corporation; special-grade reagent) and neohesperidin (Fujifilm Wako Pure Chemical Corporation; special-grade reagent) were contained at the predetermined final concentrations shown in Table 2, was filled into square Petri dishes (“model number: D-210-16”, manufactured by As One Corporation). Before high-temperature treatment, lettuce (Green Wave, Takii & Co., Ltd.) was sown on 2% water agar medium, and lettuce seedlings on day 2 after the sowing were transplanted to the above-described agar medium to which the hesperidin and/or the like was/were added. At the time of the transplantation, the tip of the root was marked. Each Petri dish after the transplantation was placed in an incubator (“model number: FLI-2010A”, manufactured by EYELA) at an angle of 45° with respect to the bottom surface, and high-temperature treatment was carried out at 42° C. for 1.5 hours. Thereafter, culture was similarly performed at 23° C. for 2 days, and then the increase in the root length was evaluated in terms of elongation from the tip of the root of each seedling at the time of the transplantation. In addition, for evaluation of the effect of the mixture of hesperidin and neohesperidin in normal cultivation, culture was similarly performed at 23° C. without performing the high-temperature treatment, followed by evaluation of the increase in the root length. […] The Colby's equation is as follows.\nE=(x+y)−(x·y)/100 Colby's equation:\nE: Expected root length x: Root length in the case of application of hesperidin alone y: Root length in the case of application of neohesperidin alone For each group, 15 measurement results were obtained (N=15)."}}}
{"compound": "COc1ccc([C@@H]2CC(=O)c3c(O)cc(O[C@@H]4O[C@H](CO[C@@H]5O[C@@H](C)[C@H](O)[C@@H](O)[C@H]5O)[C@@H](O)[C@H](O)[C@H]4O)cc3O2)cc1O", "note": "[Hesperidin]", "values": [{"measurement": "Root length", "setting": "lettuce (Green Wave) [1]; High-temperature treatment (42° C., 1.5 hours), then 23° C. 2 days", "value": 24.0, "unit": "mm"}, {"measurement": "Root length", "setting": "lettuce (Green Wave) [1]; Normal cultivation", "value": 25.1, "unit": "mm"}, {"measurement": "Germination rate, Increase rate", "setting": "[2]; 100 ppm", "value": 215.8, "unit": "%"}, {"measurement": "Germination rate, Increase rate", "setting": "[2]; 1000 ppm", "value": 173.7, "unit": "%"}, {"measurement": "Germination rate, Average", "setting": "[2]; then soaked at 100 ppm", "value": 68.3, "unit": "%"}, {"measurement": "Germination rate, Average", "setting": "[2]; then soaked at 1000 ppm", "value": 55.0, "unit": "%"}, {"measurement": "Weight of above-ground part, Increase rate", "setting": "Bent grass (Penncross); 0.06 ppm", "value": 151.7, "unit": "%"}, {"measurement": "Weight of above-ground part, Increase rate", "setting": "Bent grass (Penncross); 0.6 ppm", "value": 162.2, "unit": "%"}, {"measurement": "Weight of above-ground part, Average", "setting": "Bent grass (Penncross); drenching 0.06 ppm", "value": 3.3, "unit": "g"}, {"measurement": "Weight of above-ground part, Average", "setting": "Bent grass (Penncross); drenching 0.6 ppm", "value": 3.6, "unit": "g"}, {"measurement": "Death of the above-ground part (FIG. 1)", "setting": "Bent grass (Penncross); groups subjected to drenching treatment (0.06 to 0.6 ppm), after high-temperature treatment", "value": "no death was found"}, {"measurement": "Number of sprouts, Average", "setting": "[3]; 0.15 g/m^2, foliar spraying four times as wettable powder formulation containing 1% hesperidin", "value": 111.33, "unit": "number"}, {"measurement": "Number of sprouts, Increase rate", "setting": "[3]; 0.15 g/m^2", "value": 189.8, "unit": "%"}, {"measurement": "Number of sprouts, Average", "setting": "[3]; 0.75 g/m^2, foliar spraying four times as wettable powder formulation containing 1% hesperidin", "value": 112.00, "unit": "number"}, {"measurement": "Number of sprouts, Increase rate", "setting": "[3]; 0.75 g/m^2", "value": 190.9, "unit": "%"}, {"measurement": "Fresh weight of above-ground part", "setting": "[4]; Normal cultivation", "value": 4.2, "unit": "g"}, {"measurement": "Fresh weight of above-ground part", "setting": "[4]; Salt treatment (75 mM NaCl, 7 days)", "value": 3.6, "unit": "g"}, {"measurement": "Increase/decrease of above-ground part", "setting": "Wheat (Satonosora); 10 ppm", "value": 123, "unit": "%"}, {"measurement": "Increase/decrease of underground part", "setting": "Wheat (Satonosora); 10 ppm", "value": 107, "unit": "%"}, {"measurement": "Increase/decrease of above-ground part", "setting": "Wheat (Satonosora); 33 ppm", "value": 116, "unit": "%"}, {"measurement": "Increase/decrease of underground part", "setting": "Wheat (Satonosora); 33 ppm", "value": 104, "unit": "%"}, {"measurement": "Weight of above-ground part FW", "setting": "Wheat (Satonosora); drenching 10 ppm", "value": 364.9, "unit": "mg/individual"}, {"measurement": "Weight of underground part FW", "setting": "Wheat (Satonosora); drenching 10 ppm", "value": 391.6, "unit": "mg/individual"}, {"measurement": "Weight of above-ground part FW", "setting": "Wheat (Satonosora); drenching 33 ppm", "value": 345.4, "unit": "mg/individual"}, {"measurement": "Weight of underground part FW", "setting": "Wheat (Satonosora); drenching 33 ppm", "value": 382.6, "unit": "mg/individual"}, {"measurement": "Increase/decrease of above-ground part", "setting": "Cabbage (Okina); 1 ppm", "value": 106, "unit": "%"}, {"measurement": "Increase/decrease of underground part", "setting": "Cabbage (Okina); 1 ppm", "value": 108, "unit": "%"}, {"measurement": "Increase/decrease of above-ground part", "setting": "Cabbage (Okina); 10 ppm", "value": 112, "unit": "%"}, {"measurement": "Increase/decrease of underground part", "setting": "Cabbage (Okina); 10 ppm", "value": 106, "unit": "%"}, {"measurement": "Increase/decrease of above-ground part", "setting": "Cabbage (Okina); 100 ppm", "value": 106, "unit": "%"}, {"measurement": "Increase/decrease of underground part", "setting": "Cabbage (Okina); 100 ppm", "value": 101, "unit": "%"}, {"measurement": "Weight of above-ground part FW", "setting": "Cabbage (Okina); seed dressing 1 ppm", "value": 54.0, "unit": "mg/individual"}, {"measurement": "Weight of underground part FW", "setting": "Cabbage (Okina); seed dressing 1 ppm", "value": 15.6, "unit": "mg/individual"}, {"measurement": "Weight of above-ground part FW", "setting": "Cabbage (Okina); seed dressing 10 ppm", "value": 57.2, "unit": "mg/individual"}, {"measurement": "Weight of underground part FW", "setting": "Cabbage (Okina); seed dressing 10 ppm", "value": 15.3, "unit": "mg/individual"}, {"measurement": "Weight of above-ground part FW", "setting": "Cabbage (Okina); seed dressing 100 ppm", "value": 53.9, "unit": "mg/individual"}, {"measurement": "Weight of underground part FW", "setting": "Cabbage (Okina); seed dressing 100 ppm", "value": 14.6, "unit": "mg/individual"}, {"measurement": "optimum concentration of hesperidin to be added for cabbage", "setting": "Cabbage (Okina); seed dressing, growth promotion", "value": "lower than 100 ppm"}, {"measurement": "Root length, Average", "setting": "tomato (Momotaro Home); 0.1 ppm", "value": 49.89, "unit": "mm"}, {"measurement": "Root length, Increase rate", "setting": "tomato (Momotaro Home); 0.1 ppm", "value": 214.2, "unit": "%"}, {"measurement": "Root length, Average", "setting": "tomato (Momotaro Home); 1 ppm", "value": 55.81, "unit": "mm"}, {"measurement": "Root length, Increase rate", "setting": "tomato (Momotaro Home); 1 ppm", "value": 239.6, "unit": "%"}, {"measurement": "Root length", "setting": "lettuce (Green Wave) [5]; High-temperature treatment (42° C., 1.5 hours)", "value": 10.9, "unit": "mm"}, {"measurement": "Root length", "setting": "lettuce (Green Wave) [5]; Normal cultivation", "value": 19.2, "unit": "mm"}]}
